Test results from US20240225983A1, “COMPOSITIONS AND METHODS FOR PREVENTING OR REDUCING AUTOXIDATION OF FRAGRANCE AND FOOD OILS” (Firmenich SA, priority 2021, published 2024).
Where a name gives a salt, the structure may show the parent alone.

Legend:
[1] = POV of corn oil treated with SOP (POV titration); conditions: 0.4 mL in 8 mL corn oil, versus untreated corn oil (FIG. 3, 4)
Procedure: The POV of these solutions was measured periodically after standing on the laboratory benchtop at ambient light and temperature conditions.
Into a 15 mL glass vial was placed 0.201 gm of AKG and 2.011 gm of DET. The mixture was stirred with a small magnetic stirrer at room temperature over a weekend (approximately 3 days). However, not all of the AKG dissolved, so the vial was placed in a heating block at 90° C. for 15 minutes, and a clear solution was obtained. Upon cooling and standing for several days, no solid precipitated out. This material (0.4 mL) was diluted into 8 mL of corn oil to start the experiment. A sample was also made from just 0.4 mL of DET in 8 mL of corn oil. POV titration measurements were taken periodically of each sample versus untreated corn oil.
The performance of the SOPs were monitored by POV titration as described in Flavor & Fragrance Journal, M. Calandra and Y. Wang, 2020, 35:107-113 or as per the IFRA POV method (see www.ifraorg.org).

[2] = Aldehyde levels in salad dressing (DNPH derivatization, HPLC); conditions: ~2.7% (w/w) in ranch dressing, room temperature, versus untreated (FIG. 9)
Procedure: Aldehyde levels in corn oil or other foods (such as salad dressing) were measured using the DNPH derivatization followed by HPLC analysis method (J. Ag. Food Chem. Deng, F-Y. et al, (2014) 62, 52, 12545-12552; Food Res. Internat., Cao, J. et al, (2014) 64, 901-907). Alternatively, or in addition to aldehyde measurements by HPLC, organoleptic evaluation to assess the level of rancidity in a sample was done.
Treatment of Salad Dressing with a 2-Oxoacid Salt • Sample: Ranch dressing (chili lime flavor) • 2-Oxoacid salt used: Phenyl pyruvic acid dimethyldecylammonium salt • Dosage: ˜2.7% (w/w) (0.4 g of the salt was added to 15 g of salad dressing). • Storage conditions: Room temperature, capped loosely, and mixed periodically.

Molecule	POV of corn oil [1]	aldehyde concentration (hexanal or 2-nonenal) in salad dressing [2]
CCOC(=O)C(O)C(O)C(=O)OCC (centres unmarked) [DET, diethyl tartrate]	some measurable activity toward reducing the POV	–
Phenyl pyruvic acid dimethyldecylammonium salt	–	aldehyde levels were lower
